Test results: patent publication US20140336182A1, “Aurora Kinase Modulators and Method of Use” (Amgen Inc., priority 2013, published 2014)

test system: HeLa cells; test: HeLa cell 24 hr ploidy assay (DNA content); type: cell-based; settings: Homo sapiens, HeLa, 4N ploidy, average, read-out: 24h_4NPloidy EC50_IP (uM Avg)
Procedure, shortened: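 DNA content measured by Hoechst 33342 nuclear staining (0.5 ug/ml, 45 min RT) and high-content imaging of fixed HeLa cells after 24 h compound exposure in 0.25% DMSO. Fractions of 4N and >4N cells fitted to dose curves giving EC50 IP, EC50 transit, Max and Min.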

EC50 [µM]	Compound
0.094	COc1cnc2c(Oc3ccc(Nc4nnc(-c5cc6ccccc6n5C)c5ccccc45)cc3)ccnc2c1 [compound 143, 4-(1-methyl-1H-indol-2-yl)-N-(4-((7-(methyloxy)-1,5-naphthyridin-4-yl)oxy)phenyl)-1-phthalazinamine]
0.068	COc1cnc2c(Oc3ccc(Nc4nnc(-c5ccc(C(C)C)cc5)c5ccccc45)cc3)ccnc2c1 [compound 155]
> 1.2	COc1cnc2c(Oc3ccc(Nc4nnc(-c5ccc(OC(F)(F)F)cc5)c5ccccc45)cc3)ccnc2c1 [compound 163]
0.063	COc1cc2nccc(Oc3ccc(Nc4nnc(-c5ccccc5)c5ccccc45)cc3)c2cn1 [compound 96, N-(4-((7-(methyloxy)-1,6-naphthyridin-4-yl)oxy)phenyl)-4-phenyl-1-phthalazinamine]
0.009	COc1cccc(-c2nnc(Nc3ccc(Oc4ccnc5cc(OC)c(OC)cc45)cc3)c3ccccc23)n1 [compound 101]
0.061	CCCc1cc(-c2ccccc2)nnc1Nc1ccc(Oc2ccnc3cc(OC)cnc23)cc1 [compound 156]
0.048	COc1cc2nccc(Oc3ccc(Nc4nnc(-c5cccc(COC(C)=O)n5)c5ccccc45)cc3)c2cc1OC [compound 113]
0.155	COc1cnc2c(Oc3ccc(Nc4ncc(-c5ccccc5)c5ccccc45)cc3)ccnc2c1 [compound 144]
0.031	NC(=O)c1cc2nccc(Oc3ccc(Nc4nnc(-c5ccccc5)c5ccccc45)cc3F)c2s1 [compound 78]

same assay, conditions: Homo sapiens, HeLa, HeLa cells, 4N ploidy, average, read-out: 24h_4NPloidy EC50_IP (uM Avg)

EC50 [µM]	Compound
0.055	Cc1csc(-c2nnc(Nc3ccc(Sc4ccnc5ccc(OC(F)(F)F)cc45)cc3)c3ccccc23)c1 [compound 572]
0.006	COc1cnc2c(Sc3ccc(Nc4nnc(N5CCN6CCC[C@@H]6C5)c5ccccc45)cc3)ccnc2c1 [compound 582]
0.006	COc1cnc2c(Sc3ccc(Nc4nnc(-c5ccc6nonc6c5)c5ccccc45)cc3)ccnc2c1 [compound 504]
0.482	COc1cnc2c(Oc3ccc(Nc4nnc(N5CCN(S(C)(=O)=O)CC5)c5ccccc45)cc3)ccnc2c1 [compound 607]
0.281	COc1cnc2c(Oc3ccc(Nc4nnc(C5CC5)c5ccccc45)cc3)ccnc2c1 [compound 543]
0.087	COc1cnc2c(Oc3ccc(Nc4nnc(N5CCN6CCCCC[C@@H]6C5)c5ccccc45)cc3)ccnc2c1 [compound 604]
0.011	COc1cc(OC)c2c(Oc3ccc(Nc4nnc(-c5cc(C)cs5)c5ccccc45)cc3)ncnc2c1 [compound 573]
0.006	COC1CCN(c2nnc(Nc3ccc(Sc4ccnc5cc(C#N)ccc45)cc3)c3ccccc23)CC1 [compound 534]
0.381	COC1CCN(c2nnc(Nc3ccc(Oc4ccnc5ccoc45)cc3)c3ccccc23)CC1 [compound 478]
0.072	COc1cnc2c(Sc3ccc(Nc4nnc(NCCCSC)c5ccccc45)cc3)ccnc2c1 [compound 508]
0.016	Clc1ccc(-c2nnc(Nc3ccc(Sc4ccnc5cccnc45)cc3)c3ccccc23)nc1 [compound 493]
0.008	COCCOc1cc(-c2nnc(Nc3ccc(Sc4ccnc5cc(OC)cnc45)cc3)c3ccccc23)ccc1Cl [compound 450]
0.021	COc1cnc2c(Sc3ccc(Nc4nnc(N5CCCC5)c5ccccc45)cc3)ccnc2c1 [compound 521]
0.069	COc1ccc(-c2nnc(Nc3ccc(Sc4ccnc5ccoc45)cc3)c3ccccc23)cn1 [compound 485]
0.026	COCCCNc1nnc(Nc2ccc(Sc3ccnc4cc(OC)cnc34)cc2)c2ccccc12 [compound 535]
0.007	COc1cnc2c(Sc3ccc(Nc4nnc(N5CCc6sccc6C5)c5ccccc45)cc3)ccnc2c1 [compound 578]
0.022	CCOc1nc(-c2nnc(Nc3ccc(Sc4ccnc5cc(OC)cnc45)cc3)c3ccccc23)cs1 [compound 505]
0.382	COc1cnc2c(Oc3ccc(Nc4nncc5ccccc45)cc3)ccnc2c1 [compound 542, N-(4-((7-methoxy-1,5-naphthyridin-4-yl)oxy)phenyl)-1-phthalazinamine]
0.006	COc1cnc2c(Sc3ccc(Nc4nnc(N5CCC(C(F)(F)F)CC5)c5ccccc45)cc3)ccnc2c1 [compound 523]
0.115	Clc1ccc(-c2nnc(Nc3ccc(Oc4ncnc5ccsc45)cc3)c3ccccc23)cc1 [compound 591]
0.007	Cc1csc(-c2nnc(Nc3ccc(Sc4ccnc5ccn(C(C)C)c45)cc3)c3ccccc23)c1 [compound 472]
0.108	COc1ccc2nccc(Oc3ccc(Nc4nnc(-c5ccc(C)cn5)c5ccccc45)cc3)c2c1 [compound 554]

Further lines, the molecule ahead of its results:

Compound	EC50 [µM]
COc1cnc2c(Oc3ccc(Nc4nnc(-c5ccc([S+](C)[O-])cc5)c5ccccc45)cc3)ccnc2c1 (stereo not drawn) [compound 262]	> 1.2
c1ccc(-c2nnc(Nc3ccc(Sc4ccnc5ccccc45)cc3)c3ccccc23)cc1 [compound 310]	0.011
COc1cnc2c(Oc3ccc(Nc4nnc(-c5ccc(Cl)cn5)c5ccccc45)cc3)ccnc2c1 [compound 228, 4-(5-chloro-2-pyridinyl)-N-(4-((7-(methyloxy)-1,5-naphthyridin-4-yl)oxy)phenyl)-1-phthalazinamine]	0.035
COc1ccc2c(Oc3ccc(Nc4nnc(-c5ccccc5)c5c4CCC5)cc3)ccnc2c1 [compound 368]	0.021
CCc1cc(-c2ccc(Cl)cc2)nnc1Nc1ccc(Oc2ccnc3cc(OC)cnc23)nc1 [compound 275, 6-(4-chlorophenyl)-4-ethyl-N-(6-(7-methoxy-1,5-naphthyridin-4-yloxy)pyridin-3-yl)pyridazin-3-amine]	0.161
COc1cnc2c(Oc3ccc(Nc4nnc(-c5ccc6c(c5)CCO6)c5ccccc45)cc3)ccnc2c1 [compound 168, 4-(2,3-dihydro-1-benzofuran-5-yl)-N-(4-((7-(methyloxy)-1,5-naphthyridin-4-yl)oxy)phenyl)-1-phthalazinamine]	0.007
COc1cc2nncc(Oc3ccc(Nc4nnc(-c5ccc(Cl)cc5)c5ccccc45)cc3)c2cc1OC [compound 282]	≥ 1.2
N#Cc1cnc2c(Oc3ccc(Nc4nnc(-c5ccc(Cl)cc5)c5ccccc45)cc3)ccnc2c1 [compound 265, 8-((4-((4-(4-chlorophenyl)-1-phthalazinyl)amino)phenyl)oxy)-1,5-naphthyridine-3-carbonitrile]	0.056
COc1cnc2c(Oc3ccc(Nc4nnc(-c5ccc(Cl)cc5)c5c4CCC5)cc3)ccnc2c1 [compound 411]	> 1.2
c1cnc2c(Sc3ccc(Nc4nnc(-c5ccc6c(c5)OCO6)c5ccccc45)cc3)ccnc2c1 [compound 443]	0.007
CCc1cc(-c2ccc(C)cc2)nnc1Nc1ccc(Sc2ccnc3cccnc23)cc1 [compound 358]	0.035
COCCOc1ccc2nccc(Sc3ccc(Nc4nnc(-c5ccc(Cl)cc5)c5ccccc45)cc3)c2c1 [compound 434]	0.027
Cc1noc(-c2cc3nccc(Oc4ccc(Nc5nnc(-c6ccc(Cl)cc6)c6ccccc56)cc4)c3s2)n1 [compound 286]	0.088
COc1cnc2c(Oc3ccc(Nc4nnc(-c5cccc6[nH]ccc56)c5ccccc45)cc3)ccnc2c1 [compound 183]	0.052
N#Cc1ccc2c(Sc3ccc(Nc4nnc(-c5ccc(Cl)cc5)c5ccccc45)cc3)ccnc2c1 [compound 248, 4-((4-((4-(4-chlorophenyl)-1-phthalazinyl)amino)phenyl)thio)-7-quinolinecarbonitrile]	0.022
COc1ccc2c(Sc3ccc(Nc4nnc(-c5ccc(Cl)cn5)c5ccccc45)cc3)ccnc2c1 [compound 364]	0.005

Compound	EC50 [µM]
Cc1csc(-c2nnc(Nc3ccc(Sc4ccnc5cc(C(=O)N6CCOCC6)sc45)cc3)c3ccccc23)c1 [compound 312]	0.032
c1ccc(-c2nnc(Nc3ccc(Oc4ccnc5cc(-c6cn[nH]c6)ccc45)cc3)c3ccccc23)cc1 [compound 417]	0.001
COc1cnc2c(Oc3ccc(Nc4nnc(-c5ccccc5)c5c4CCC5)cc3)ccnc2c1 [compound 367]	0.039
COc1cnc2c(Oc3ccc(Nc4nnc(-c5cc6ccccc6o5)c5ccccc45)cc3)ccnc2c1 [compound 176]	0.008
Clc1ccc(-c2nnc(Nc3ccc(Sc4ccnc5ccsc45)cc3)c3ccccc23)cc1 [compound 332]	0.001
COc1cnc2c(Oc3ccc(Nc4nnc(-c5cnc6ccccc6c5)c5ccccc45)cc3)ccnc2c1 [compound 182]	0.032
COc1cc2nccc(Sc3ccc(Nc4nnc(-c5ccccc5)c5ccccc45)cc3)c2cn1 [compound 353]	0.007
CNC(=O)c1cc(Sc2ccc(Nc3nnc(-c4ccc(Cl)cc4)c4ccccc34)cc2)ccn1 [compound 360]	0.413
Clc1ccc(-c2nnc(Nc3ccc(Sc4ccnc5cc(Br)cnc45)cc3)c3ccccc23)cc1 [compound 324]	0.029
c1ccc(-c2nnc(Nc3ccc(Oc4ncnc5[nH]ccc45)cc3)c3ccccc23)cc1 [compound 273]	> 1.2
COc1cnc2c(Sc3ccc(Nc4nnc(-c5cccc(C)n5)c5ccccc45)cc3)ccnc2c1 [compound 420]	0.029
Cc1csc(-c2nnc(Nc3ccc(Oc4ccnc5ccncc45)cc3)c3ccccc23)c1 [compound 429]	0.034
COc1cnc2c(Oc3ccc(Nc4nnc(-c5cc(C)cc(C)c5)c5ccccc45)cc3)ccnc2c1 [compound 188]	0.051
COc1cnc2c(Oc3ccc(Nc4nnc(-c5cccnc5F)c5ccccc45)cc3)ccnc2c1 [compound 191]	> 1.2
c1ccc(-c2nnc(Nc3ccc(Oc4ccnc5cc(N6CCOCC6)ccc45)cc3)c3ccccc23)cc1 [Example 42, N-(4-(7-Morpholinoquinolin-4-yloxy)phenyl)-4-phenylphthalazin-1-amine]	0.007

same assay, conditions: Homo sapiens, HeLa, HeLa cells, 4N ploidy, given as class symbol, read-out: 24h_4NPloidy EC50_IP (uM Avg)

EC50 [µM]	Compound
< 0.1	c1ccc(-c2nnc(Nc3ccc(Sc4ccnc5ccccc45)cc3)c3ccccc23)cc1 [compound 294]
